Values joined by “and” are separate entries in the source; they are usually repeats but may differ in a detail not shown here. Equal entries are not always repeated.
System: HCV pseudoparticles
Assay: HCV pseudoparticle (HCVpp) entry assay in Huh7 hepatoma cells, luciferase readout
Assay type: cell-based, hepatitis C virus
Conditions: for viral entry as a percentage of the uninhibited control: HCV entry, duplicates
Experimental: HCV pseudotype particle generation. Single cycle HCV pseudoparticles are composed of a replication-defective HIV genome and HCV envelope proteins. These pseudoparticles were made by transfecting 293T cells with 5 ug of each pNL43E-R-luc (Chen et al., J. Virol. 68(2):654-60 (1994)) and plasmid expressing HCV envelope proteins pCMV/E1-2 with profection transfection kit from Promega (Madison, Wis.). The medium was refreshed 12-24 hours after transfection and supernatant was collected 48 hours after transfection. The supernatant from a transfection of only pNL43E-R-luc was used each time as a control for non specific entry events.
Infection of hepatoma cell lines with HCV pseudotype particles and screen for inhibitory peptides. The hepatoma cells, Huh7, was seeded at 8000 cells in 90 ul medium in 96-well plate. In the case of the inhibitor screen, the inhibitor was incubated with cells for one hour at 37° C. and then 50 ul viral supernatant was added to the cells 24 hours after seeding. The viral stock was pre-tittered and diluted to yield approximately 10,000 to 20,000 RLU. The cells were incubated at 37° C. with 5% CO2 for additional 72 hours and were harvested for luciferase assay. Peptide stocks were prepared in 100% DMSO at 10 mg/ml and were first screened at 100 ug/ml and then a dose responsive curve was generated with 10 points 3-fold titration starting from 100 ug/ml.
The peptide of SEQ ID NO: 77 was first serial diluted by the factor of 3 in 100% DMSO from 100 ug/ml and then transferred to the assay plates at 100-fold dilution. The peptide was first incubated with cells and HCVpp (A) or HIVpp (B), respectively, for 30 minutes at […] in this experiment. Then, the medium containing the peptide was removed from the cells and virus with peptide was added to the cells. Cells were incubated for 72 hours and then were harvested for luciferase assay. Two separate trials were performed.
In addition, the peptide of SEQ ID NO: 77 was mutated at several positions and assayed in the HCV entry assay discussed above. […] The assays were performed essentially as described above.

[1] = 0.1 nM of peptide (printed for three rows), two values per peptide and row
[2] = 0.3 nM of peptide, two values per peptide
[3] = 1 nM of peptide, two values per peptide
[4] = 3 nM of peptide, two values per peptide
[5] = 10 nM of peptide, two values per peptide
[6] = 30 nM of peptide, two values per peptide
[7] = 100 nM of peptide, two values per peptide
[8] = 300 nM of peptide, two values per peptide
[9] = 10000 nM of peptide, two values per peptide
[10] = 30000 nM of peptide, two values per peptide

A-I-K-W-E-Y-V-L-L-P-F-L-L (AIKWEYVLLPFLL; HCV peptide) [SEQ ID NO: 124]
% control (HCVpp entry), proline scanning [1]: 87 % control and 98 % control and 89 % control and 104 % control and 109 % control and 97 % control | % control (HCVpp entry), proline scanning [2]: 74 % control and 88 % control | % control (HCVpp entry), proline scanning [3]: 89 % control and 102 % control | % control (HCVpp entry), proline scanning [4]: 80 % control and 86 % control | % control (HCVpp entry), proline scanning [5]: 67 % control and 102 % control | % control (HCVpp entry), proline scanning [6]: 48 % control and 71 % control | % control (HCVpp entry), proline scanning [7]: 66 % control and 83 % control | % control (HCVpp entry), proline scanning [8]: 85 % control and 68 % control | % control (HCVpp entry), proline scanning [9]: 85 % control and 60 % control | % control (HCVpp entry), proline scanning [10]: 98 % control and 67 % control

P-I-K-W-E-Y-V-L-L-L-F-L-L [SEQ ID NO: 99]
% control (HCVpp entry), proline scanning [1]: 64 % control and 84 % control and 108 % control and 70 % control and 101 % control and 121 % control | % control (HCVpp entry), proline scanning [2]: 84 % control and 80 % control | % control (HCVpp entry), proline scanning [3]: 75 % control and 89 % control | % control (HCVpp entry), proline scanning [4]: 68 % control and 56 % control | % control (HCVpp entry), proline scanning [5]: 45 % control and 53 % control | % control (HCVpp entry), proline scanning [6]: 28 % control and 36 % control | % control (HCVpp entry), proline scanning [7]: 21 % control and 34 % control | % control (HCVpp entry), proline scanning [8]: 21 % control and 29 % control | % control (HCVpp entry), proline scanning [9]: 24 % control and 16 % control | % of control at ~30 uM (percentage of hepatitis C virus cellular entry at 30 μM peptide vs uninhibited control): 21%

A-I-K-W-E-K-V-L-L-L-F-L-L (AIKWEKVLLLFLL; HCV peptide) [SEQ ID NO: 130]
% control (HCVpp entry), lysine scanning [1]: 122 % control and 84 % control and 106 % control and 96 % control and 105 % control and 93 % control | % control (HCVpp entry), lysine scanning [2]: 103 % control and 100 % control | % control (HCVpp entry), lysine scanning [3]: 114 % control and 89 % control | % control (HCVpp entry), lysine scanning [4]: 95 % control and 81 % control | % control (HCVpp entry), lysine scanning [5]: 90 % control and 102 % control | % control (HCVpp entry), lysine scanning [6]: 74 % control and 75 % control | % control (HCVpp entry), lysine scanning [8]: 33 % control and 19 % control

LLFLLLVYEWKIA [retro]
viral entry as a percentage of the uninhibited control (0.1 nM of peptide (three lines)): 90% | viral entry as a percentage of the uninhibited control (0.1 nM of peptide (three lines), 0.0001 µM): 107% | viral entry as a percentage of the uninhibited control (0.3 nM of peptide, 0.0003 µM): 88% and 98% and 86% and 95% and 91% | viral entry as a percentage of the uninhibited control (1 nM of peptide, 0.001 µM): 94% and 86% and 97% and 81% and 51% and 88% | viral entry as a percentage of the uninhibited control (3 nM of peptide, 0.003 µM): 62% and 99% and 121% and 76% and 77% and 66% | viral entry as a percentage of the uninhibited control (10 nM of peptide, 0.01 µM): 52% and 95% and 93% and 81% and 68% and 77% | viral entry as a percentage of the uninhibited control (100 nM of peptide, 0.1 µM): 72% and 101% and 79% and 99% and 65% and 62% | viral entry as a percentage of the uninhibited control (30000 nM of peptide, 30 µM): 104% and 110% and 73% and 90% and 96% and 80% | activity compared to the wild type 13-mer peptide (HCVpp entry inhibition, in words): completely lost activity

A-I-K-W-E-Y-V-L-L-K-F-L-L (AIKWEYVLLKFLL; HCV peptide) [SEQ ID NO: 134]
% control (HCVpp entry), lysine scanning [1]: 80 % control and 96 % control and 108 % control and 75 % control and 138 % control and 79 % control | % control (HCVpp entry), lysine scanning [2]: 104 % control and 85 % control | % control (HCVpp entry), lysine scanning [3]: 128 % control and 81 % control | % control (HCVpp entry), lysine scanning [4]: 94 % control and 92 % control | % control (HCVpp entry), lysine scanning [5]: 105 % control and 77 % control | % control (HCVpp entry), lysine scanning [6]: 101 % control and 76 % control | % control (HCVpp entry), lysine scanning [7]: 89 % control and 87 % control | % control (HCVpp entry), lysine scanning [8]: 75 % control and 68 % control | % control (HCVpp entry), lysine scanning [9]: 60 % control and 47 % control | % control (HCVpp entry), lysine scanning [10]: 56 % control and 45 % control

From patent US20100119483A1, “PEPTIDE VIRAL ENTRY INHIBITORS” (Schering Corporation, priority 2004, published 2010)
